Results: patent US10729815B2, “Combined treatment for nerve injuries” (Ramot at Tel-Aviv University Ltd., priority 2016, dated 2020)

B1: ACE human recombinant: Angiotensin Converting Enzyme Human recombinant (Biotest 929-ZN) (protein, UniProt P12821 30-1306, looked up)
Angiotensin-converting enzyme: LDPGLQPGNFSADEAGAQLFAQSYNSSAEQVLFQSVAASWAHDTNITAENARRQEEAALLSQEFAEAWGQKAKELYEPIWQNFTDPQLRRIIGAVRTLGSANLPLAKRQQYNALLSNMSRIYSTAKVCLPNKTATCWSLDPDLTNILASSRSYAMLLFAWEGWHNAAGIPLKPLYEDFTALSNEAYKQDGFTDTGAYWRSWYNSPTFEDDLEHLYQQLEPLYLNLHAFVRRALHRRYGDRYINLRGPIPAHLLGDMWAQSWENIYDMVVPFPDKPNLDVTSTMLQQGWNATHMFRVAEEFFTSLELSPMPPEFWEGSMLEKPADGREVVCHASAWDFYNRKDFRIKQCTRVTMDQLSTVHHEMGHIQYYLQYKDLPVSLRRGANPGFHEAIGDVLALSVSTPEHLHKIGLLDRVTNDTESDINYLLKMALEKIAFLPFGYLVDQWRWGVFSGRTPPSRYNFDWWYLRTKYQGICPPVTRNETHFDAGAKFHVPNVTPYIRYFVSFVLQFQFHEALCKEAGYEGPLHQCDIYRSTKAGAKLRKVLQAGSSRPWQEVLKDMVGLDALDAQPLLKYFQPVTQWLQEQNQQNGEVLGWPEYQWHPPLPDNYPEGIDLVTDEAEASKFVEEYDRTSQVVWNEYAEANWNYNTNITTETSKILLQKNMQIANHTLKYGTQARKFDVNQLQNTTIKRIIKKVQDLERAALPAQELEEYNKILLDMETTYSVATVCHPNGSCLQLEPDLTNVMATSRKYEDLLWAWEGWRDKAGRAILQFYPKYVELINQAARLNGYVDAGDSWRSMYETPSLEQDLERLFQELQPLYLNLHAYVRRALHRHYGAQHINLEGPIPAHLLGNMWAQTWSNIYDLVVPFPSAPSMDTTEAMLKQGWTPRRMFKEADDFFTSLGLLPVPPEFWNKSMLEKPTDGREVVCHASAWDFYNGKDFRIKQCTTVNLEDLVVAHHEMGHIQYFMQYKDLPVALREGANPGFHEAIGDVLALSVSTPKHLHSLNLLSSEGGSDEHDINFLMKMALDKIAFIPFSYLVDQWRWRVFDGSITKENYNQEWWSLRLKYQGLCPPVPRTQGDFDPGAKFHIPSSVPYIRYFVSFIIQFQFHEALCQAAGHTGPLHKCDIYQSKEAGQRLATAMKLGFSRPWPEAMQLITGQPNMSASAMLSYFKPLLDWLRTENELHGEKLGWPQYNWTPNSARSEGPLPDSGRVSFLGLDLDAQQARVGQWLLLFLGIALLVATLGLSQRLFSIRHRSLHRHSHGPQFGSEVELRHS

How the values were obtained:
[1] = tested on: astrocytes cultures of human brain cells, derived from astrocytoma, U-87 MG; experiment: In-vitro effect of anti-gliotic agents on 35S-GAG accumulation in activated astrocytes; type: cell-based; conditions: 48 h
Protocol: (§1) Cell culture—Astrocytes cultures of human brain cells, derived from astrocytoma, U-87 MG (ATCC® HTB-14™, American Type Culture Collection, Rockville, Md., USA) were cultured in growth medium [10% Fetal Bovine Serum (FBS) and 1% Penicillin-Streptomycin solution (PS) in Minimum Essential Medium (MEM)]. […] The cell suspension (5×10^5 cells/well) was seeded into a 6-well plate (500 μl/well) containing 1.5 ml/well of assay medium, incubated for 24±1 hours at […], 5% CO2, and then examined microscopically. Following, at 90% cell confluence, the plates were treated according to the following groups:
(§2) The anti-gliotic agents were added as follows: Chondroitinase ABC (0.2 U/ml), Collagenase (2 mg, 50 μl), β-D-Xyloside (2.5 mM, 20 μl), MMPs-3 (0.5 μg, 20 μl), Anti TGFβ 1,2&3 (10 μg, 20 μl), Mitomycin C (50 μg, 25 μl), ACE human recombinant (0.5 μg, 25 μl) and Anti-Nogo A (5 U, 25 μl).
Astrocytes activation causes glycosaminoglycans (GAGs) accumulation in cultures, both intracellularly, pericellularly and extracellularly. Therefore, GAGs can serve as a tracer for either formation or elimination of the scar barrier.

[2] = tested on: astrocytes cultures of human brain cells, derived from astrocytoma, U-87 MG; experiment: In-vitro effect of anti-gliotic agents on astrocytes survival (cell counting); type: cell-based; conditions: 48 h
Protocol: as §1, §2

[3] = activated with Bt2-cAMP + theophylline plus anti-gliotic agent
[4] = activated with Bt2-cAMP + theophylline plus anti-gliotic agent, values multiplied 6 times (normalized to vital cell survivors)
[5] = astrocytes activated with Bt2-cAMP 1 mM + theophylline 0.25 mM plus the anti-gliotic agent

| Molecule | % of Isolated 35S-GAGs (relative to the theophylline control) [1, 3] | Isolated 35S-GAGs Average + SD [1, 4] | % of cells (cell percentage in astrocyte cultures relative to untreated cultures) [2, 5] | Isolated 35S-GAGs Average + SD ([1]; activator(s) only, theophylline well multiplied 6 times (normalized to vital cell survivors)) | % of cells (cell percentage in astrocyte cultures relative to untreated cultures) ([2]; activator(s) only, no anti-gliotic agent, Bt2-cAMP 1 mM, theophylline 0.25 mM) |
| --- | --- | --- | --- | --- | --- |
| Collagenase | 66.1% | 51,371 + 10,556 | 39.1% |  |  |
| CCCC(=O)Nc1ncnc2c1ncn2[C@@H]1O[C@@H]2COP(=O)([O-])O[C@H]2[C@H]1OC(=O)CCC.[Na+] [Bt2-cAMP, N6,2′-O-Dibutyryladenosine 3′,5′-cyclic monophosphate, sodium salt, reference compound] |  |  |  | 34,872 + 2,946 | 32.8% |
| Chondroitinase ABC | 5.5% | 4,299 + 939 | 33.1% |  |  |
| O=[N+]([O-])c1ccc(O[C@@H]2OC[C@@H](O)[C@H](O)[C@H]2O)cc1 [β-D-Xyloside, 4-Nitrophenyl β-D-xylopyranoside, reference compound] | 78.5% | 61,016 + 21,506 | 54.7% |  |  |
| MMPs-3: MMP-3-Matrix Metalloproteinase, human Stromlysin STR1 (Sigma SRP 7783) | 82.3% | 63,941 + 11,374 | 23.2% |  |  |
| B1 | 22.9% | 17,814 + 2,201 | 70.4% |  |  |
